Assay results taken from US20130266668A1, “USE OF HEMOGLOBIN EFFECTORS TO INCREASE THE BIOAVAILABILITY OF THERAPEUTIC GASES” (VIRGINIA COMMONWEALTH UNIVERSITY, priority 2010, published 2013).
Values joined by “and” are separate entries in the source; they are usually repeats but may differ in a detail not shown here. Equal entries are not always repeated.

Assays:
[1] = target: T1, human whole blood or erythrocyte (erythhHb) (Homo sapiens, UniProt P68871+P69905); test: Effect of RSR-13 on oxygen affinity of human whole blood (multiple-point tonometer); assay type: biochemical; conditions: human blood hct 30%
T1 construct: from tissue; host or cells: human whole blood (hct ~30%)
Procedure: (§1) The effect of RSR-13 on the oxygen affinity of erythswHb and erythhHb, and HBOC-1 was determined using multiple-point tonometer. RSR-13 (1, 2 or 5 mM) was incubated with blood from swine or human (hct ˜30%) or HBOC-1 (13.4 g/dL) for 30 minutes. The Hb-compound mixture was then further incubated in IL 237 tonometers (Instrumentation Laboratories, Inc. Lexington, Mass.) for 5 minutes at 37° C. to equilibrate at oxygen tensions of 6 mmHg or 20 mmHg or 40 mmHg or 60 mmHg. Following, the sample is aspirated into an IL 1420 Automated Blood Gas Analyzer and an IL 682 Co-oximeter (Instrumentation Laboratories) or ABL 700 Blood Gas Analyzer (Radiometer, Westlake, Ohio) to determine the pH, pCO2, pO2, and Hb oxygen saturation values (SO2). The measured values of pO2 and SO2 were then subjected to a non-linear regression analysis using the program Scientist to estimate the P50 and Hill coefficient values (cooperativity of oxygen binding; n50).

[2] = target: T2, swine whole blood or erythrocyte (erythswHb) (Sus scrofa, UniProt P01965+P02067); test: Effect of RSR-13 on oxygen affinity of swine whole blood (multiple-point tonometer); assay type: biochemical
T2 construct: from tissue; host or cells: swine whole blood (hct 30%, 20% or 15%)
Procedure: as §1, with “RSR-13 (1, 2 or 5 mM) was incubated with blood from swine or human (hct ˜30%) or HBOC-1 (13.4 g/dL) for 30 minutes.” left out

HBOC-1 (13.4 g/dL) = target: T3, HBOC-1 (13.4 g/dL) (Bos taurus, UniProt P01966+P02070); test: Effect of RSR-13 on oxygen affinity of HBOC-1 (multiple-point tonometer); assay type: biochemical, bovine
T3 construct: is a highly purified bovine Hb that is crosslinked with gluteraldehyde; purchased BioPure Inc
T3 sequence (P01966 2-142 limits assumed): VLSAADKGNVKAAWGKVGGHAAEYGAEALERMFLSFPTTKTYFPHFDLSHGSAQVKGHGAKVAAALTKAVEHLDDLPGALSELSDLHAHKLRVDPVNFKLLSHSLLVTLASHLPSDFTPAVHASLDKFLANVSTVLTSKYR
T3 sequence (P02070 whole entry): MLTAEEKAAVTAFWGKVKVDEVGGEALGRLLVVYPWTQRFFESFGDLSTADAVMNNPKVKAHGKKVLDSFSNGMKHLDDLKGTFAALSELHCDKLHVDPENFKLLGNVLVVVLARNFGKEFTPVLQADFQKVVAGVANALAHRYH
Procedure: as §1

[3] = target: T4, erythswHb/HBOC-1 solution mixture (UniProt P01965+P01966+P02067+P02070); test: Effect of RSR-13 on oxygen affinity of erythswHb/HBOC-1 solution mixtures; assay type: biochemical, swine; conditions: 2 mM RSR-13
T4 construct: composed of either 15% or 20% hct whole blood in 13.4 g/dL of HBOC-1; is a highly purified bovine Hb that is crosslinked with gluteraldehyde; tissue BioPure Inc (HBOC-1 part); host or cells: swine whole blood (hct 15 or 20%) mixed with HBOC-1 (13.4 g/dL) at 75:25 or 50:50 by volume
T4 sequence (P01965 whole entry): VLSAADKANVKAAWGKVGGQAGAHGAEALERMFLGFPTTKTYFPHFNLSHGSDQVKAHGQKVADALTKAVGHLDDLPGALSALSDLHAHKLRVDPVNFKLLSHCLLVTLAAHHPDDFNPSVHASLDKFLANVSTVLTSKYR
T4 sequence (P02067 whole entry): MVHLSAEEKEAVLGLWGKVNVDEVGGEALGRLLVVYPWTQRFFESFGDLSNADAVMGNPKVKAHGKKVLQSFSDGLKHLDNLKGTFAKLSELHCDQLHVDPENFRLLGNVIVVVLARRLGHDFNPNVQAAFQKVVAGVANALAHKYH
T4 sequence (P01966 2-142 limits assumed): as the sequence (P01966 2-142 limits assumed) above
T4 sequence (P02070 whole entry): as the sequence (P02070 whole entry) above
Procedure: as §1
RSR-13 (2 mM) was incubated with erythswHb (hct of 15 or 20%)/HBOC-1 (13.4 g/dL) solution mixture in a volume ratio of 75:25 and 50:50 for 30 minutes. The Hb-compound mixture was then analyzed for their P50 and Hill coefficient values as described above.

[4] = target: T5, NO derivative of cell free human Hb (NOhHb) (Homo sapiens, UniProt P68871+P69905); test: Effect of RSR-13 on Soret absorbance of NO derivative of cell free human Hb; assay type: biochemical
T5 construct: Human hemoglobin (hHb) or swine Hb (swHb) was purified from discarded blood samples; from tissue; host or cells: purified in house from discarded human blood samples
T5 sequence (P69905 2-142 limits assumed): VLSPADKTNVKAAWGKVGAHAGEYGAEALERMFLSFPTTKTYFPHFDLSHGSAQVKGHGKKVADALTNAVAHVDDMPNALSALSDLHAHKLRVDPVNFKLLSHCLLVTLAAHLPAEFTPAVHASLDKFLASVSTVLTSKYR
T5 sequence (P68871 2-147 limits assumed): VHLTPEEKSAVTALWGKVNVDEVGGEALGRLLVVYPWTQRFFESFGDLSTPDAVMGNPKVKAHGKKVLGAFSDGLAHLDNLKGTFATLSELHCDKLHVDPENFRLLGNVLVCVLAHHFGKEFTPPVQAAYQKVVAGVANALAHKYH
Procedure: (§2) Effect of RSR-13 on the absorption spectra in the soret region of the nitrosylated derivatives of cell free Hb from human and swine, and HBOC-1 were recorded at 37° C. using HP Agilant 8453 Spectrophotometer using 1 cm path length cuvette. Solid Na dithionite (2 mg/mL) was added to the Hb to make the fully deoxygenated Hb, followed by addition of solid diethylamine NONOate (1.3 mg/mL) to make the NOhHb or NOswHb, or NOHBOC-1 derivatives. RSR-13 (20 uM-800 uM) were added to 65 ug of the NO derivatives and the spectrum monitored in the soret region at 417 nm.

[5] = target: T6, NO derivative of cell free swine Hb (NOswHb) (Sus scrofa, UniProt P01965+P02067); test: Effect of RSR-13 on Soret absorbance of NO derivative of cell free swine Hb; assay type: biochemical
T6 construct: Human hemoglobin (hHb) or swine Hb (swHb) was purified from discarded blood samples; from tissue; host or cells: purified in house from discarded swine blood samples
T6 sequence (P01965 whole entry): as the sequence (P01965 whole entry) above
T6 sequence (P02067 2-147 limits assumed): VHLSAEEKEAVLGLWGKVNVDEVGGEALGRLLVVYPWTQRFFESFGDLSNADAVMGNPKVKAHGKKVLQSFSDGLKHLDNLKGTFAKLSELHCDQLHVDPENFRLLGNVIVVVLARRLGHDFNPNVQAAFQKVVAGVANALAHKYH
Procedure: as §2

[6] = target: T7, NO derivative of HBOC-1 (NOHBOC-1) (Bos taurus, UniProt P01966+P02070); test: Effect of RSR-13 on Soret absorbance of NO derivative of HBOC-1; assay type: biochemical, bovine
T7 construct: is a highly purified bovine Hb that is crosslinked with gluteraldehyde; purchased BioPure Inc
T7 sequence (P01966 2-142 limits assumed): as the sequence (P01966 2-142 limits assumed) above
T7 sequence (P02070 whole entry): as the sequence (P02070 whole entry) above
Procedure: as §2

[7] = target: T8, COHb in swine whole blood (hct of 30%) (Sus scrofa, UniProt P01965+P02067); test: Effect of RSR-13 on COHb levels of swine blood; assay type: biochemical; conditions: 2 mM RSR-13, after 30 minutes
T8 construct: from tissue; host or cells: swine whole blood (hct 30%, 20% or 15%)
T8 sequence (P01965 whole entry): as the sequence (P01965 whole entry) above
T8 sequence (P02067 2-147 limits assumed): as the sequence (P02067 2-147 limits assumed) above
Procedure: (§3) To determine whether RSR-13 will reduce COHb levels in swine blood or HBOC-1, we incubated HBOC-1 (13.4 g/dL) that has been exposed to CO to form ˜51% COHb, and swine whole blood (hct of 30%) that has been exposed to CO to form ˜52 or 10% COHb concentrations with 2 mM RSR-13. RSR-13 was able to reduce the amount of COHb by about 16% in the swine blood in the experiment starting with either 10% or 52% COHb level, and about 14% in the HBOC-1.

[8] = target: T9, COHb in HBOC-1 (13.4 g/dL) (Bos taurus, UniProt P01966+P02070); test: Effect of RSR-13 on COHb levels of HBOC-1; assay type: biochemical, bovine; conditions: HBOC-1 13.4 g/dL exposed to CO to ~51% COHb (control 51.1), 2 mM RSR-13, after 30 minutes
T9 construct: is a highly purified bovine Hb that is crosslinked with gluteraldehyde; purchased BioPure Inc
T9 sequence (P01966 2-142 limits assumed): as the sequence (P01966 2-142 limits assumed) above
T9 sequence (P02070 whole entry): as the sequence (P02070 whole entry) above
Procedure: as §3

whole blood = target: T10, whole blood (Homo sapiens, UniProt P68871+P69905); conditions: Phase I studies, doses of 75-100 mg/kg; cited from earlier work
T10 construct: host or cells: whole blood of dosed subjects
T10 sequence (P69905 2-142 limits assumed): as the sequence (P69905 2-142 limits assumed) above
T10 sequence (P68871 2-147 limits assumed): as the sequence (P68871 2-147 limits assumed) above

[9] = Oxygen affinity of HBOC-1 itself, without RSR-13 (multiple-point tonometer); assay type: biochemical, bovine; conditions: HBOC-1 13.4 g/dL alone, 0 RSR-13
Procedure: as §1

[10] = swine blood (100%) hct 15%, 2 mM RSR-13
[11] = swine blood (100%) hct 20%, 2 mM RSR-13
[12] = swine blood hct 30%, 1 mM RSR-13
[13] = swine blood hct 30%, 2 mM RSR-13
[14] = swine blood hct 30%, 5 mM RSR-13
[15] = Blood/HBOC (50:50), swine blood hct 15%
[16] = Blood/HBOC (50:50), swine blood hct 20%
[17] = Blood/HBOC (75:25), swine blood hct 15%
[18] = Blood/HBOC (75:25), swine blood hct 20%

Work on `Cc1cc(C)cc(NC(=O)Cc2ccc(OC(C)(C)C(=O)O)cc2)c1` [RSR-13, 2-[4-[2-[(3,5-dimethylphenyl)amino]-2-oxoethyl]phenoxy]-2-methylpropanoic acid] yielded a P50 ([1]; 1 mM RSR-13) of 35.1 ± 2.2 mmHg, a n50 ([1]; 1 mM RSR-13) of 2.4 ± 0.2 and a ΔP50 ([1]; 1 mM RSR-13) of 3.3 mmHg. It also gave a P50 ([1]; 2 mM RSR-13) of 42.0 ± 1.7 mmHg, a n50 ([1]; 2 mM RSR-13) of 2.0 ± 0.3 and a ΔP50 ([1]; 2 mM RSR-13) of 10.2 mmHg. For the same molecule, the P50 ([1]; 5 mM RSR-13) was 78.0 ± 1.2 mmHg, the n50 ([1]; 5 mM RSR-13) was 1.8 ± 0.1 and the ΔP50 ([1]; 5 mM RSR-13) was 46.2 mmHg. It also gave a P50 [2, 10] of 62.3 ± 0.5 mmHg, a n50 [2, 10] of 2.2 ± 0.2 and a ΔP50 [2, 10] of 25.0 mmHg. It also gave a P50 [2, 11] of 51.3 ± 3.2 mmHg, a n50 [2, 11] of 2.2 ± 0.1 and a ΔP50 [2, 11] of 16.8 mmHg. It also gave a P50 [2, 12] of 34.5 ± 0.2 mmHg, a n50 [2, 12] of 2.6 ± 0.3 and a ΔP50 [2, 12] of 3.9 mmHg. It also gave a P50 [2, 13] of 41.5 ± 0.5 mmHg, a n50 [2, 13] of 2.3 ± 0.0 and a ΔP50 [2, 13] of 11.3 mmHg. It also gave a P50 [2, 14] of 72.1 ± 1.3 mmHg, a n50 [2, 14] of 1.9 ± 0.1 and a ΔP50 [2, 14] of 41.5 mmHg. For the same molecule, the P50 (HBOC-1 (13.4 g/dL); 2 mM RSR-13) was 73.6 ± 3.0 mmHg, the n50 (HBOC-1 (13.4 g/dL); 2 mM RSR-13) was 1.1 ± 0.3 and the ΔP50 (HBOC-1 (13.4 g/dL); 2 mM RSR-13) was 15.1 mmHg. The P50 (HBOC-1 (13.4 g/dL); 5 mM RSR-13) was 83.5 ± 3.4 mmHg, the n50 (HBOC-1 (13.4 g/dL); 5 mM RSR-13) was 1.1 ± 0.3 and the ΔP50 (HBOC-1 (13.4 g/dL); 5 mM RSR-13) was 25 mmHg and 25.0 mmHg. The P50 [3, 15] was 74.0 ± 2.1 mmHg, the n50 [3, 15] was 1.5 ± 0.1 and the ΔP50 [3, 15] was 21.2 mmHg. It also gave a P50 [3, 16] of 68.0 ± 4.2 mmHg, a n50 [3, 16] of 1.8 ± 0.3 and a ΔP50 [3, 16] of 20.5 mmHg. For the same molecule, the P50 [3, 17] was 75.1 ± 5.6 mmHg, the n50 [3, 17] was 1.7 ± 0.1 and the ΔP50 [3, 17] was 27.6 mmHg. For the same molecule, the P50 [3, 18] was 61.5 ± 3.6 mmHg, the n50 [3, 18] was 2.1 ± 0.1 and the ΔP50 [3, 18] was 18.1 mmHg. The “Percentage (%) decrease in absorbance intensity at 417 nm” value (from here on “Percentage (%) decrease”) ([4]; 20 uM RSR-13) was 3.2 ± 0.4%, the “Percentage (%) decrease” value ([4]; 100 uM RSR-13) was 8.9 ± 0.3% and the “Percentage (%) decrease” value ([4]; 200 uM RSR-13) was 13.2 ± 0.3%. The “Percentage (%) decrease” value ([4]; 300 uM RSR-13) was 16.5 ± 0.4%, the “Percentage (%) decrease” value ([5]; 20 uM RSR-13) was 3.3 ± 0.4% and the “Percentage (%) decrease” value ([5]; 100 uM RSR-13) was 7.9 ± 0.4%. The “Percentage (%) decrease” value ([5]; 200 uM RSR-13) was 14.9 ± 0.3%, the “Percentage (%) decrease” value ([5]; 300 uM RSR-13) was 17.1 ± 0.5% and the “Percentage (%) decrease” value ([6]; 100 uM RSR-13) was 4.7 ± 0.2%. For the same molecule, the “Percentage (%) decrease” value ([6]; 200 uM RSR-13) was 6.1 ± 0.3%, the “Percentage (%) decrease” value ([6]; 300 uM RSR-13) was 7.8 ± 0.5% and the “Percentage (%) decrease” value ([6]; 800 uM RSR-13) was 15.5 ± 0.5%. For the same molecule, the COHb levels ([7]; swine blood hct 30% exposed to CO to ~10% COHb (control 10.2)) was 8.5 ± 0.3%, the COHb levels ([7]; swine blood hct 30% exposed to CO to ~52% COHb (control 52.4)) was 44.2 ± 1.0% and the COHb levels [8] was 44.1 ± 0.7%. The “increase of the P50 of whole blood” value (whole blood) was 10 Torr.

For “HBOC-1: Oxyglobin® from BioPure Inc: highly purified bovine Hb that is crosslinked with gluteraldehyde”, the P50 [9] was 58.5 mmHg and 58.5 ± 6.9 mmHg and the n50 [9] was 1.2 and 1.2 ± 0.3.
